# “And” between values parts separate entries of the source, which are not always exact repeats. Equal entries are not always repeated. Toxic doses and inconclusive results are not listed.
# Tested on: L1210 leukemia ip in BDF1 mice, survival T/C
# Assay: NCI In Vivo Anticancer Drug Screen. Data for tumor model L1210 Leukemia (intraperitoneal) in B6D2F1 (BDF1) mice
# Details: endpoint: mean survival time, higher = longer survival
# In short: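 Each compound was tested against a transplantable tumor grown in mice. The endpoint was survival, with treated animals benchmarked against vehicle controls as a simple ratio.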
# [1] = dose: 25.0 mg/kg/injection, schedule: Q01DX001 (ip), vehicle: saline
# [2] = dose: 50.0 mg/kg/injection, schedule: Q01DX001 (ip), vehicle: saline
compound,measurement,setting,value
COc1ccc(CCO)cc1OC,T/C,"dose: 50.0 mg/kg/injection, schedule: Q01DX001 (ip), vehicle: carboxymethylcellulose (CMC)",95 % of control
same,T/C,"dose: 100.0 mg/kg/injection, schedule: Q01DX009 (ip), vehicle: water",93 % of control
same,T/C,"dose: 100.0 mg/kg/injection, schedule: Q04DX003 (ip), vehicle: water",100 % of control
same,T/C,"dose: 200.0 mg/kg/injection, schedule: Q01DX009 (ip), vehicle: water",93 % of control
same,T/C,"dose: 200.0 mg/kg/injection, schedule: Q04DX003 (ip), vehicle: water",97 % of control
same,T/C,"dose: 400.0 mg/kg/injection, schedule: Q01DX001 (ip), vehicle: carboxymethylcellulose (CMC)",97 % of control
same,T/C,"dose: 400.0 mg/kg/injection, schedule: Q01DX009 (ip), vehicle: water",95 % of control
same,T/C,"dose: 400.0 mg/kg/injection, schedule: Q04DX003 (ip), vehicle: water",97 % of control
CCOC(=O)CNc1cccc(Cl)c1,T/C,"dose: 100.0 mg/kg/injection, schedule: Q04DX002 (ip), vehicle: Klucel (hydroxypropylcellulose) (HPC)",107 % of control
same,T/C,"dose: 200.0 mg/kg/injection, schedule: Q04DX002 (ip), vehicle: Klucel (hydroxypropylcellulose) (HPC)",103 % of control
same,T/C,"dose: 400.0 mg/kg/injection, schedule: Q04DX002 (ip), vehicle: Klucel (hydroxypropylcellulose) (HPC)",96 % of control
CC1(C#N)CC/C(=C\c2ccc3c(c2)OCO3)C(=O)C1 (configuration not stated),T/C,"dose: 100.0 mg/kg/injection, schedule: Q04DX003 (ip), vehicle: saline",96 % of control
same,T/C,"dose: 200.0 mg/kg/injection, schedule: Q04DX003 (ip), vehicle: saline",91 % of control
same,T/C,"dose: 400.0 mg/kg/injection, schedule: Q04DX003 (ip), vehicle: saline",107 % of control
CCCC1(CN2c3ccccc3Sc3ccccc32)CCN(CC)C1 (configuration not stated),T/C,"dose: 9.37 mg/kg/injection, schedule: Q01DX009 (ip), vehicle: saline",101 % of control
same,T/C,"dose: 12.5 mg/kg/injection, schedule: Q01DX001 (ip), vehicle: saline",97 % of control and 100 % of control
same,T/C,"dose: 12.5 mg/kg/injection, schedule: Q04DX003 (ip), vehicle: saline",103 % of control
same,T/C,"dose: 18.75 mg/kg/injection, schedule: Q01DX009 (ip), vehicle: saline",95 % of control
same,T/C,[1],95 % of control
same,T/C,"dose: 25.0 mg/kg/injection, schedule: Q04DX003 (ip), vehicle: saline",103 % of control
same,T/C,"dose: 37.5 mg/kg/injection, schedule: Q01DX009 (ip), vehicle: saline",92 % of control
same,T/C,[2],95 % of control and 87 % of control
same,T/C,"dose: 50.0 mg/kg/injection, schedule: Q04DX003 (ip), vehicle: saline",97 % of control
same,T/C,"dose: 75.0 mg/kg/injection, schedule: Q04DX003 (ip), vehicle: saline",103 % of control
CC(=O)N(C)C1=C(Sc2ccc(Cl)cc2)C(=O)c2ccccc2C1=O,T/C,"dose: 75.0 mg/kg/injection, schedule: Q01DX001 (ip), vehicle: carboxymethylcellulose (CMC)",91 % of control
same,T/C,"dose: 150.0 mg/kg/injection, schedule: Q01DX001 (ip), vehicle: carboxymethylcellulose (CMC)",88 % of control
CSc1nc2c(n1-c1ccccc1)C(=O)C(OS(=O)(=O)c1ccccc1)C(=O)N2 (configuration not stated),T/C,"dose: 75.0 mg/kg/injection, schedule: Q01DX001 (ip), vehicle: saline with Tween-80",95 % of control
same,T/C,"dose: 150.0 mg/kg/injection, schedule: Q01DX001 (ip), vehicle: saline with Tween-80",98 % of control
same,T/C,"dose: 300.0 mg/kg/injection, schedule: Q01DX001 (ip), vehicle: saline with Tween-80",98 % of control
O=C(Nc1ccc(C2=NCCN2)cc1)Nc1cccc(NC(=S)Nc2ccc(C3=NCCN3)cc2)c1,T/C,"dose: 1.88 mg/kg/injection, schedule: Q01DX Z (ip), vehicle: saline",95 % of control
same,T/C,"dose: 3.75 mg/kg/injection, schedule: Q01DX Z (ip), vehicle: saline",103 % of control
same,T/C,"dose: 7.5 mg/kg/injection, schedule: Q01DX Z (ip), vehicle: saline",113 % of control
same,T/C,"dose: 15.0 mg/kg/injection, schedule: Q01DX Z (ip), vehicle: saline",150 % of control
same,T/C,"dose: 15.0 mg/kg/injection, schedule: Q01DX Z (oral), vehicle: saline",97 % of control
same,T/C,"dose: 30.0 mg/kg/injection, schedule: Q01DX Z (ip), vehicle: saline",150 % of control
same,T/C,"dose: 30.0 mg/kg/injection, schedule: Q01DX Z (oral), vehicle: saline",100 % of control
same,T/C,"dose: 60.0 mg/kg/injection, schedule: Q01DX Z (oral), vehicle: saline",97 % of control
same,T/C,"dose: 120.0 mg/kg/injection, schedule: Q01DX Z (oral), vehicle: saline",107 % of control
CN(Cc1ccccc1)C(=O)/C=C/c1ccccc1,T/C,"dose: 100.0 mg/kg/injection, schedule: Q01DX009 (ip), vehicle: Klucel (hydroxypropylcellulose) (HPC)",93 % of control
same,T/C,"dose: 100.0 mg/kg/injection, schedule: Q04DX003 (ip), vehicle: Klucel (hydroxypropylcellulose) (HPC)",94 % of control
same,T/C,"dose: 200.0 mg/kg/injection, schedule: Q01DX009 (ip), vehicle: Klucel (hydroxypropylcellulose) (HPC)",96 % of control
same,T/C,"dose: 200.0 mg/kg/injection, schedule: Q04DX003 (ip), vehicle: Klucel (hydroxypropylcellulose) (HPC)",96 % of control
same,T/C,"dose: 400.0 mg/kg/injection, schedule: Q04DX003 (ip), vehicle: Klucel (hydroxypropylcellulose) (HPC)",89 % of control
OC1CCC2=C(C1)C1CCC2C1 (configuration not stated),T/C,"dose: 12.5 mg/kg/injection, schedule: Q04DX003 (ip), vehicle: saline with Tween-80",96 % of control
same,T/C,"dose: 25.0 mg/kg/injection, schedule: Q04DX003 (ip), vehicle: saline with Tween-80",89 % of control
same,T/C,"dose: 50.0 mg/kg/injection, schedule: Q04DX003 (ip), vehicle: saline with Tween-80",98 % of control
O=C(Nc1ccc([N+](=O)[O-])cc1Cl)N(CCO)C1CCCCC1,T/C,"dose: 100.0 mg/kg/injection, schedule: Q01DX009 (ip), vehicle: saline with Tween-80",96 % of control
same,T/C,"dose: 100.0 mg/kg/injection, schedule: Q04DX003 (ip), vehicle: saline with Tween-80",102 % of control
same,T/C,"dose: 200.0 mg/kg/injection, schedule: Q01DX009 (ip), vehicle: saline with Tween-80",106 % of control
same,T/C,"dose: 200.0 mg/kg/injection, schedule: Q04DX003 (ip), vehicle: saline with Tween-80",101 % of control
same,T/C,"dose: 400.0 mg/kg/injection, schedule: Q01DX009 (ip), vehicle: saline with Tween-80",116 % of control
same,T/C,"dose: 400.0 mg/kg/injection, schedule: Q04DX003 (ip), vehicle: saline with Tween-80",90 % of control
C[N+](C)(C)C1/C=C(/Cl)CC/C=C(/Cl)C1 (configuration not stated),T/C,"dose: 9.38 mg/kg/injection, schedule: Q01DX001 (ip), vehicle: saline",96 % of control
same,T/C,"dose: 18.75 mg/kg/injection, schedule: Q01DX001 (ip), vehicle: saline",89 % of control
same,T/C,"dose: 37.5 mg/kg/injection, schedule: Q01DX001 (ip), vehicle: saline",97 % of control
CCOC(=O)c1ccc(N(CC(S)CNc2cc(C)nc(N)n2)S(=O)(=O)c2ccc(C)cc2)cc1 (configuration not stated),T/C,[1],95 % of control
same,T/C,[2],90 % of control
